Reference: PubChem BioAssay AID250 (DTP/NCI, 2004)
“And” between values parts separate entries of the source, which are not always exact repeats. Equal values may be shown once. Inconclusive results and toxic doses are left out.

System: BDF1 mice, L1210 leukemia sc, survival T/C
Experiment: NCI In Vivo Anticancer Drug Screen. Data for tumor model L1210 Leukemia (subcutaneous) in B6D2F1 (BDF1) mice
Details: higher = longer survival
In short: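 Read-out: T/C ratio, i.e. survival or tumor size in treated mice over that in vehicle-treated controls, from mice bearing transplantable tumors.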

How did the T/C (endpoint: mean survival time, dose: 70.0 mg/kg/injection, schedule: Q01DX001 (ip), vehicle: saline) turn out when `O=P1(N(CCCl)CCCl)NCCCO1` (centres undefined) was run?
The T/C was 161 % of control.

And the T/C (endpoint: mean survival time, dose: 100.0 mg/kg/injection, schedule: Q08DX003 (sc), vehicle: saline)?
Its T/C is 190 % of control.

What about the T/C (endpoint: mean survival time, dose: 140.0 mg/kg/injection, schedule: Q01DX001 (ip), vehicle: saline) of the same compound?
Its T/C is 180 % of control.

What about the T/C (endpoint: mean survival time, dose: 200.0 mg/kg/injection, schedule: Q01DX001 (ip), vehicle: saline) of the same compound?
The T/C was 219 % of control.

What about the T/C (endpoint: mean survival time, dose: 200.0 mg/kg/injection, schedule: Q08DX003 (sc), vehicle: saline) of the same compound?
The T/C was 221 % of control.

And the T/C (endpoint: mean survival time, dose: 280.0 mg/kg/injection, schedule: Q01DX001 (ip), vehicle: saline)?
Its T/C is 232 % of control.

What about the T/C (endpoint: mean survival time, dose: 400.0 mg/kg/injection, schedule: Q08DX003 (sc), vehicle: saline) of the same compound?
The T/C was 171 % of control.

And the T/C (endpoint: mean survival time, dose: 560.0 mg/kg/injection, schedule: Q01DX001 (ip), vehicle: saline)?
The T/C was 91 % of control.

And the T/C (endpoint: median survival time, dose: 6.25 mg/kg/injection, schedule: Q01DX009 (ip), vehicle: saline)?
Its T/C is 104 % of control.

What about the T/C (endpoint: median survival time, dose: 6.25 mg/kg/injection, schedule: Q01DX009 (sc), vehicle: saline) of the same compound?
Its T/C is 98 % of control and 101 % of control.

What about the T/C (endpoint: median survival time, dose: 8.4 mg/kg/injection, schedule: Q01DX Z (ip), vehicle: saline) of the same compound?
Its T/C is 100 % of control.

What about the T/C (endpoint: median survival time, dose: 10.8 mg/kg/injection, schedule: Q01DX001 (ip), vehicle: saline) of the same compound?
The T/C was 150 % of control.

What about the T/C (endpoint: median survival time, dose: 12.5 mg/kg/injection, schedule: Q01DX009 (sc), vehicle: saline) of the same compound?
Its T/C is 107 % of control and 112 % of control.

And the T/C (endpoint: median survival time, dose: 14.0 mg/kg/injection, schedule: Q01DX Z (ip), vehicle: saline)?
Its T/C is 110 % of control and 117 % of control.

And the T/C (endpoint: median survival time, dose: 14.0 mg/kg/injection, schedule: Q01DX Z (oral), vehicle: saline)?
Its T/C is 104 % of control.

What about the T/C (endpoint: median survival time, dose: 14.0 mg/kg/injection, schedule: Q01DX Z (sc), vehicle: other) of the same compound?
The T/C was 110 % of control.

And the T/C (endpoint: median survival time, dose: 14.0 mg/kg/injection, schedule: Q#A X Z (sc), vehicle: saline)?
Its T/C is 220 % of control.

And the T/C (endpoint: median survival time, dose: 18.0 mg/kg/injection, schedule: Q01DX001 (ip), vehicle: saline)?
Its T/C is 200 % of control.

And the T/C (endpoint: median survival time, dose: 23.0 mg/kg/injection, schedule: Q01DX Z (ip), vehicle: saline)?
Its T/C is 165 % of control.

And the T/C (endpoint: median survival time, dose: 23.0 mg/kg/injection, schedule: Q01DX Z (oral), vehicle: saline)?
The T/C was 120 % of control.

What about the T/C (endpoint: median survival time, dose: 23.0 mg/kg/injection, schedule: Q01DX Z (sc), vehicle: other) of the same compound?
Its T/C is 195 % of control.

What about the T/C (endpoint: median survival time, dose: 23.0 mg/kg/injection, schedule: Q## X Z (sc), vehicle: saline) of the same compound?
The T/C was 110 % of control.

And the T/C (endpoint: median survival time, dose: 25.0 mg/kg/injection, schedule: Q01DX009 (ip), vehicle: saline)?
Its T/C is 122 % of control.

What about the T/C (endpoint: median survival time, dose: 39.0 mg/kg/injection, schedule: Q01DX Z (ip), vehicle: saline) of the same compound?
The T/C was 243 % of control.

What about the T/C (endpoint: median survival time, dose: 39.0 mg/kg/injection, schedule: Q01DX Z (oral), vehicle: saline) of the same compound?
Its T/C is 155 % of control and 215 % of control and 221 % of control.

What about the T/C (endpoint: median survival time, dose: 39.0 mg/kg/injection, schedule: Q02DX Z (sc), vehicle: saline) of the same compound?
Its T/C is 225 % of control.

What about the T/C (endpoint: median survival time, dose: 39.0 mg/kg/injection, schedule: Q07DX Z (sc), vehicle: saline) of the same compound?
The T/C was 113 % of control and 115 % of control and 123 % of control.

And the T/C (endpoint: median survival time, dose: 39.0 mg/kg/injection, schedule: Q## X Z (sc), vehicle: saline)?
Its T/C is 150 % of control.

What about the T/C (endpoint: median survival time, dose: 39.0 mg/kg/injection, schedule: Q#A X Z (sc), vehicle: saline) of the same compound?
Its T/C is 230 % of control.

And the T/C (endpoint: median survival time, dose: 50.0 mg/kg/injection, schedule: Q01DX009 (ip), vehicle: saline)?
Its T/C is 162 % of control.

What about the T/C (endpoint: median survival time, dose: 50.0 mg/kg/injection, schedule: Q01DX009 (sc), vehicle: saline) of the same compound?
The T/C was 163 % of control and 181 % of control.

And the T/C (endpoint: median survival time, dose: 50.0 mg/kg/injection, schedule: Q08DX003 (sc), vehicle: saline)?
The T/C was 122 % of control.

And the T/C (endpoint: median survival time, dose: 65.0 mg/kg/injection, schedule: Q01DX Z (ip), vehicle: saline)?
The T/C was 213 % of control.

And the T/C (endpoint: median survival time, dose: 65.0 mg/kg/injection, schedule: Q01DX Z (oral), vehicle: saline)?
The T/C was 161 % of control and 182 % of control.

And the T/C (endpoint: median survival time, dose: 65.0 mg/kg/injection, schedule: Q01DX Z (sc), vehicle: other)?
Its T/C is 240 % of control.

And the T/C (endpoint: median survival time, dose: 65.0 mg/kg/injection, schedule: Q07DX Z (sc), vehicle: saline)?
The T/C was 165 % of control and 175 % of control.

And the T/C (endpoint: median survival time, dose: 65.0 mg/kg/injection, schedule: Q#A X Z (sc), vehicle: saline)?
The T/C was 150 % of control.

And the T/C (endpoint: median survival time, dose: 69.0 mg/kg/injection, schedule: Q07DX003 (sc), vehicle: saline)?
The T/C was 188 % of control and 190 % of control.

What about the T/C (endpoint: median survival time, dose: 100.0 mg/kg/injection, schedule: Q07DX003 (sc), vehicle: saline) of the same compound?
Its T/C is 244 % of control.

What about the T/C (endpoint: median survival time, dose: 100.0 mg/kg/injection, schedule: Q07DX004 (sc), vehicle: saline) of the same compound?
Its T/C is 211 % of control and 213 % of control.

What about the T/C (endpoint: median survival time, dose: 100.0 mg/kg/injection, schedule: Q16DX002 (sc), vehicle: saline) of the same compound?
Its T/C is 157 % of control and 161 % of control (2×).

What about the T/C (endpoint: median survival time, dose: 100.0 mg/kg/injection, schedule: Q## X002 (sc), vehicle: saline) of the same compound?
Its T/C is 155 % of control.

And the T/C (endpoint: median survival time, dose: 108.0 mg/kg/injection, schedule: Q01DX001 (sc), vehicle: other)?
The T/C was 160 % of control.

What about the T/C (endpoint: median survival time, dose: 108.0 mg/kg/injection, schedule: Q01DX014 (sc), vehicle: saline) of the same compound?
The T/C was 163 % of control.

What about the T/C (endpoint: median survival time, dose: 108.0 mg/kg/injection, schedule: Q01DX Z (ip), vehicle: saline) of the same compound?
The T/C was 113 % of control.

What about the T/C (endpoint: median survival time, dose: 108.0 mg/kg/injection, schedule: Q01DX Z (oral), vehicle: saline) of the same compound?
Its T/C is 208 % of control and 240 % of control.

And the T/C (endpoint: median survival time, dose: 108.0 mg/kg/injection, schedule: Q01DX Z (sc), vehicle: other)?
The T/C was 180 % of control.

What about the T/C (endpoint: median survival time, dose: 108.0 mg/kg/injection, schedule: Q07DX Z (sc), vehicle: saline) of the same compound?
The T/C was 171 % of control.

What about the T/C (endpoint: median survival time, dose: 108.0 mg/kg/injection, schedule: Q08DX003 (ip), vehicle: saline) of the same compound?
Its T/C is 109 % of control.

What about the T/C (endpoint: median survival time, dose: 180.0 mg/kg/injection, schedule: Q01DX001 (sc), vehicle: other) of the same compound?
The T/C was 191 % of control.

And the T/C (endpoint: median survival time, dose: 180.0 mg/kg/injection, schedule: Q01DX014 (sc), vehicle: saline)?
Its T/C is 217 % of control.

What about the T/C (endpoint: median survival time, dose: 180.0 mg/kg/injection, schedule: Q02DX Z (sc), vehicle: saline) of the same compound?
The T/C was 170 % of control.

What about the T/C (endpoint: median survival time, dose: 180.0 mg/kg/injection, schedule: Q07DX Z (sc), vehicle: saline) of the same compound?
Its T/C is 195 % of control and 226 % of control.

And the T/C (endpoint: median survival time, dose: 180.0 mg/kg/injection, schedule: Q08DX003 (ip), vehicle: saline)?
The T/C was 121 % of control.

And the T/C (endpoint: median survival time, dose: 200.0 mg/kg/injection, schedule: Q01DX001 (ip), vehicle: saline)?
Its T/C is 200 % of control and 205 % of control.

And the T/C (endpoint: median survival time, dose: 200.0 mg/kg/injection, schedule: Q16DX002 (sc), vehicle: saline)?
Its T/C is 183 % of control and 206 % of control (2×).

What about the T/C (endpoint: median survival time, dose: 200.0 mg/kg/injection, schedule: Q## X002 (sc), vehicle: saline) of the same compound?
Its T/C is 180 % of control.

What about the T/C (endpoint: median survival time, dose: 256.0 mg/kg/injection, schedule: Q01DX001 (sc), vehicle: saline) of the same compound?
Its T/C is 213 % of control and 215 % of control.

And the T/C (endpoint: median survival time, dose: 300.0 mg/kg/injection, schedule: Q01DX001 (ip), vehicle: saline)?
The T/C was 240 % of control and 242 % of control.

What about the T/C (endpoint: median survival time, dose: 300.0 mg/kg/injection, schedule: Q01DX001 (sc), vehicle: other) of the same compound?
The T/C was 243 % of control.

And the T/C (endpoint: median survival time, dose: 300.0 mg/kg/injection, schedule: Q01HX002 (ip), vehicle: saline)?
Its T/C is 113 % of control.

And the T/C (endpoint: median survival time, dose: 300.0 mg/kg/injection, schedule: Q07DX Z (sc), vehicle: saline)?
Its T/C is 217 % of control and 219 % of control.

And the T/C (endpoint: median survival time, dose: 300.0 mg/kg/injection, schedule: Q08DX003 (ip), vehicle: saline)?
Its T/C is 113 % of control.

What about the T/C (endpoint: median survival time, dose: 300.0 mg/kg/injection, schedule: Q16DX002 (ip), vehicle: saline) of the same compound?
The T/C was 115 % of control.

And the T/C (endpoint: median survival time, dose: 320.0 mg/kg/injection, schedule: Q01DX001 (sc), vehicle: saline)?
Its T/C is 235 % of control and 240 % of control.

What about the T/C (endpoint: median survival time, dose: 400.0 mg/kg/injection, schedule: Q07DX004 (sc), vehicle: saline) of the same compound?
The T/C was 166 % of control.

And the T/C (endpoint: median survival time, dose: 400.0 mg/kg/injection, schedule: Q16DX002 (sc), vehicle: saline)?
Its T/C is 222 % of control and 239 % of control (2×).

What about the T/C (endpoint: median survival time, dose: 400.0 mg/kg/injection, schedule: Q## X002 (sc), vehicle: saline) of the same compound?
Its T/C is 220 % of control.

What about the T/C (endpoint: median survival time, dose: 500.0 mg/kg/injection, schedule: Q01DX001 (sc), vehicle: other) of the same compound?
Its T/C is 217 % of control.
